In test [1] the target is T1, Prodan-labeled G-actin (Oryctolagus cuniculus, UniProt P68135).
T1 construct: F-actin is purified from rabbit skeletal muscle using a standard protocol; Prodan (Acrylodan) fluorophore, chemical label on the thiol of Cys374; from tissue; host or cells: rabbit skeletal muscle
Description: Prodan-G-actin titration: binding stoichiometry and dissociation constant. Further details: species or system rabbit. The method, then:
FIG. 2: (A), Stoichiometric binding of Prodan-labeled G-actin (1 μM) in G-buffer with KabC at final concentrations of in μm, a: 0.0; b: 0.1; c: 0.2; d: 0.3; e: 0.4; f: 0.5; g: 0.6; h: 0.7; i: 0.8; j: 0.9; k: 1.0; l: 1.1; m: 1.2; n: 1.5 (B), Plot of the integrated intensity in (A) against [KabC] yields a binding stoichiometry of 1:1.
Prodan-actin: Actin is labeled with the thiol probe, Acrylodan (Molecular Probes, Eugene, Oreg.) using a standard protocol (Marriott et al, 1988). Rabbit muscle G-actin is labeled with the thiol reactive, environmentally sensitive probe, Acrylodan, according to the inventor's earlier publication (Marriott et al, 1988). […]
Determination of the binding stoichiometry and dissociation constants for G-actin complexes with ABPs and macrolide drugs: The change in the quantum yield and/or emission energy of Prodan-actin is used to quantify the interaction of CapG and macrolides with G-actin. The stoichiometry of the CapG-G-actin and macrolide-G-actin complex is determined by titrating Prodan-G-actin at 1 μM with increasing amounts of CapG or the macrolide from 0.1^−10 μM. […] The equilibrium binding constant is determined by titrating a constant amount of Prodan labeled G-actin at 0.05˜0.1 μM in G- or F-buffer with incrementally increasing amounts of the macrolide or CapG over a range of 10 nM to 10 μM. […]

In test [2] the target is Prodan-G-actin (Oryctolagus cuniculus, UniProt P68135). Description: Kinetic analysis of binding to Prodan-G-actin (stopped-flow and slow phase). Further details: F-actin is purified from rabbit skeletal muscle using a standard protocol; Prodan (Acrylodan) fluorophore, chemical label on the thiol of Cys374; from tissue; host or cells: rabbit skeletal muscle; species or system rabbit. The method, then: FIG. 3: Kinetic analyses of KabC binding of Prodan labeled G-actin. (A-B). Prodan-actin (0.1 μM) and KabC, loaded into separated syringes, were rapidly mixed within ˜1 msec dead-time. The concentrations of KabC were 0.0 μM (a), 1.0 μM (b), 1.5 μM (c), 2.0 μM (d) and 2.5 μM (data not shown), respectively. The decreases in emission intensity were well fitted with single exponential functions to determine the observed rate, kobs. The observed rates are plotted as a function of the [KabC] in panel (B).
Kinetic analysis of binding reactions. The kinetics of the KabC interaction with Prodan-actin is determined, using an Applied Photophysics SX.18MV Stopped-flow spectrometer, by following the decrease in the emission intensity of Prodan-actin at 25° C. Prodan was excited at 385 nm and emission was collected with a 470 nm (+/−5 nm) band-pass filter. In all cases the decrease in emission intensity was best fit with a single exponential function, which was then used to determine the observed rate, kobs. Kinetic constants of on rate (kon) and off rate (koff) were calculated according to the following equation: kobs=kon[KabC]+koff. The kinetics of the slower binding step observed in the interaction of KabC with Prodan-G-actin interaction is measured by measuring the ratio of fluorescence signals at 465 nm and 530 nm. The decay of this ratio is fit using a single exponential rate.

Values joined by “and” are separate entries in the source; they are usually repeats but may differ in a detail not shown here. Equal entries are not always repeated.

Consider Kabiramide C [KabC], for which the “decrease of quantum yield of Prodan-G-actin on binding” value in test [1] is given as approximately 3 fold. Moreover, in test [2], the “binding steps in reaction with G-actin” value was “two-step reaction”. In test [2] (Prodan-actin 0.1 μM, Y-intercept of kobs vs [KabC]), this substance came in with a koff of 5.6 s⁻¹. For the same substance, in test [2] (Prodan-actin 0.1 μM, slope of kobs vs [KabC]), the association rate constant (kon) worked out at 5.45e+07 M⁻¹ s⁻¹. For the same substance, the “rate of second, slower phase of G-actin binding” value in test [2] (decrease at 465 nm relative to red edge) was 0.008 s⁻¹ and 0.005 s⁻¹. The “rate of primary binding event” value in test [2] (fluorescence quenching of Prodan-actin) stood at 30 s⁻¹. Also, in test [2] (koff/kon, read-out: dissociation constant (Kd) from kinetic constants), the Kd was approximately 100 nM.
